{"source": "patent US20230288433A1", "about": "“DETECTION OF PHOSPHOINOSITIDES IN BLOOD CELLS AS A BIOMARKER FOR ALPHA SYNUCLEIN ASSOCIATED PATHOLOGIES AND A METHOD OF TREATMENT OF PARKINSON'S DISEASE AND THE RELATED NEURODEGENERATIONS” (YISSUM RESEARCH DEVELOPMENT COMPANY OF THE HEBREW …, priority 2021, published 2023)", "key": {"PI3K/AKT pathway [1]": {"test_system": "PI3K/AKT pathway", "experiment": "Treatments in disease models with inhibitors of the PI3K/AKT pathway", "excerpt": "The PI3K/AKT pathway is activated in brains affected with PD and models thereof. Activated PI3K/AKT is exemplified by increases in PI3-Ps, including PI3,4,5P3 and PI3,4P2 that are required for the phosphorylation and activation of AKT phosphorylation at Thr308 and Ser 473. α-Syn is involved in activation of PI3K/AKT pathway. PI3K/AKT activation by α-Syn involves protein palmitoylation. […] Inhibitors of the PI3K/AKT pathway are useful to inhibit α-Syn′ toxicity. These may include Alpelisib and additional inhibitors of PI3K class I that act peripherally not crossing the blood brain barrier (BBB); or GDC-0084 and similar agents that can cross the BBB and act at the central nervous system. Or inhibitors of class II PI3K, for example, HY-151491, HY-151492 or HY-151490.α-Syn enhances PI3K activity by enhancing protein palmitoylation, including Ras palmitoylation that regulates PI3K activity. Class I and class II PI3Ks enzymes harbor a Ras binding domain and thus are affected by α-Syn. Class I and class II PI3Ks enzymes are activated by α-Syn and are targets for PD therapy. Inhibitors for class I and class II PI3Ks may be used for drug repurposing"}, "[2]": {"test_system": "APT1/APT2 depalmitoylases", "experiment": "PIP3/PIP2 ratio by FACS in α-Syn expressing HepG2 cells with depalmitoylase inhibitors", "assay_type": "cell-based", "details": "serum starved 4 hours, 10 μM each", "description": "ML348 and ML349, inhibit the depalmitoylating enzymes Acyl protein thioesterase 1 and 2 (APT-1, APT-2, respectively). HepG2 cells were infected to express a mock vector (EV) or α-Syn. 5 days post infection, cells were serum starved for 4 hours in the presence of the indicated inhibitors: 2-Bromo-Palmitate (2BP 50 μM, an inhibitor of palmitoylation), ML348 and ML349 (10 μM each). PIP levels determined by FACS as in FIG. 4. The ratio of PI3,4,5P3 (PIP3) to PI4,5P2 (PIP2) is presented. A representative experiment out of n=2 highly similar experiments. Mean±SE of the replicates within one experiment, n>2,000 gated cells."}, "PI3K/AKT pathway [3]": {"test_system": "PI3K/AKT pathway", "experiment": "PIP3/PIP2 ratio (FACS) and PSer473/total AKT (Western blot) in HepG2 cells expressing α-Syn", "assay_type": "cell-based", "details": "inhibitor 100 nM for 2 hours, combined with CRISPR/CAS for PI3KCA or PI3KCB", "description": "FIGS. 25A-25D include vertical bar graphs showing that silencing either PI3KCA or PI3KCB interfere with α-Syn-mediated AKT activation. (25A) HepG2 cells were co-infected with an empty vector (EV) or α-Syn expressing vector together with a CRISPR/CAS vector to silence either PI3KCA (CA, p110α) or PI3KCB (CB, p110β), or a control vector (CT). 72 hours post infection, cells were processed for the detection of PIPs by FACS or analyzed by Western blotting for the detection of AKT. […] (25B) The effect of PIK75 (100 nM, PI3KCA inhibitor) or TGX 221 (100 nM, PIKCB inhibitor) on PIP3/PIP2 ratio (left) or PSer473/total AKT ratio (right) as a function of α-Syn expression. Inhibitors were added for 2 hours before cells were lysed. […] Results are mean±SD of n=3-4 trials."}, "[4]": {"test_system": "Numb-associated kinases (NAKs)", "experiment": "pAP2 (phospho-Thr156 μ2 subunit of AP2) signal by ICC in SK-Mel2 cells", "assay_type": "cell-based", "details": "10 μM for 3 hours", "description": "FIGS. 12A-12H include fluorescent micrographs and graphs showing that α-Syn colocalizes with phosphorylated AP2 and PIP2 on clathrin-coated pits. (12A) SK-Mel2 cells were processed for the detection of the immunoreactive signals of endogenous α-Syn (ab 21976 ab, red), phosphorylated Thr156 μ2 subunit of AP2 (pAP2; gray) and PI4,5P2 (green) by immunocytochemistry (ICC). Bar=10 μm. (12B) SK-Mel2 cells treated with LP-935509 (10 μM, for 3 hours), to inhibit the phosphorylation of the μ2 subunit of AP2 and processed for ICC as in (12A). Bar=[…]. (12C) SK-Mel2 cells infected with lentivirus encoding shSNCA to silence α-Syn expression. Cells were treated with LP-935509 inhibitor as in (12B) and processed for ICC. Bar=[…]. (12D) SK-Mel2 cells as in (12A), however, immunoreacted for PI3,4P2 detection (green). Bar=[…]. […] Cells analyzed by FACS to immunodetect PI4,5P2 levels. […] (12G) Cells analyzed by FACS as in (12F) to detect PI3,4P2 signal. […] Colocalization of the signal obtained for α-Syn with the specified PIP was quantified and normalized to total α-Syn positive spots. […]\nPhosphorylation at Thr156 of μ2 subunit of the clathrin adaptor AP2 starts following its binding to PI4,5P2 at the initiation of a CCP and throughout vesicle lifetime. The inventors analyzed SK-Mel2 cells, which express detectable levels of endogenous α-Syn protein. […]"}, "HEK 293T cells [5]": {"test_system": "HEK 293T cells", "experiment": "PI4,5P2 levels by ICC after rapamycin-induced recruitment of the Inp45p phosphatase to the plasma membrane", "assay_type": "cell-based", "details": "HEK 293T expressing Lyn-FRB and FKBP-CFP-Inp54p, rapamycin 500 nM; DMSO treated cells set at 100%", "description": "(§1) FIGS. 15A-15E include fluorescent micrographs, a micrograph, and graphs showing that the enhancing effect of α-Syn on CME is PI4,5P2 dependent. (15A) HEK 293T cells, transfected to co-express the three plasmids: Lyn-FRB, FKBP-CFP-Inp54p and WT α-Syn. On day of experiment, cells were serum starved for 90 minutes and then incubated for 7 minutes with 568-Tf and rapamycin (500 nM) to induce the recruitment of the Inp45p phosphatase (P-ase) to the plasma membrane along with internalization of 568-Tf. Control cells were treated in parallel with DMSO (0.5% v/v). Cells were then acid-washed, fixed and immunoreacted with anti α-Syn ab (MJFR1; Green). Direct fluorescence for CFP (P-ase; Grey) and 568-Tf (Red). (15B) HEK 293T cells expressing Lyn-FRB and FKBP-CFP-Inp54p were treated either with rapamycin or DMSO as described in (15A), followed by immunoreaction with anti PI4,5P2 ab (Echelon). A quantification of PI4,5P2 signal is shown (n>9 cells per treatment; mean±SE; * P<0.01 t-test). (15C) Graph showing quantification of internalized 568-Tf signal in cells transfected and treated as in (15A). Cells transfected with a mock vector (white bars, squares) or α-Syn (black bars, circles). […] Protein samples were analyzed by a western blot, immunoreacted with anti-Nir2 ab (Abcam). […] Sister cultures were immunoreacted with anti PI4,5P2 ab and analyzed by FACS. […]"}, "HEK 293T cells [6]": {"test_system": "HEK 293T cells", "experiment": "568-Tf (transferrin) endocytosis with the rapamycin-inducible phosphatase", "assay_type": "cell-based", "details": "control cultures without Inp45p expression", "description": "as §1"}}, "data": [{"smiles": "NC1(c2ccc(-c3nc4ccn5c(=O)[nH]nc5c4cc3-c3ccccc3)cc2)CCC1", "note": "[MK2206]", "values": [{"measurement": "aberrant activation of the PI3K/AKT pathway by α-Syn", "setting": "PI3K/AKT pathway [1]", "result": "reduce the aberrant activation of this pathway by α-Syn"}]}, {"smiles": "COc1ccc(N2CCN(C(=O)c3cc4c(s3)-c3ccccc3S(=O)(=O)C4)CC2)cc1", "note": "[ML349]", "values": [{"measurement": "effects of α-Syn to enhance PIP3 levels (PIP3 to PIP2 ratio)", "setting": "[2]", "result": "interfere with the effects of α-Syn to enhance PIP3 levels"}]}, {"smiles": "Cc1cc(C(C)Nc2ccccc2)c2nc(N3CCOCC3)cc(=O)n2c1", "note": "(stereo not drawn) [TGX 221]", "values": [{"measurement": "aberrant activation of the PI3K/AKT pathway by α-Syn", "setting": "PI3K/AKT pathway [1]", "result": "reduce the aberrant activation of this pathway by α-Syn"}, {"measurement": "α-Syn-mediated increases in PI3K/AKT pathway activation (PIP3/PIP2 ratio, PSer473/total AKT)", "setting": "PI3K/AKT pathway [3]", "result": "inhibition of α-Syn-mediated increases in PI3K/AKT pathway activation"}]}, {"smiles": "Cc1ccc([N+](=O)[O-])cc1S(=O)(=O)N(C)/N=C/c1cnc2ccc(Br)cn12", "note": "[PIK75]", "values": [{"measurement": "aberrant activation of the PI3K/AKT pathway by α-Syn", "setting": "PI3K/AKT pathway [1]", "result": "reduce the aberrant activation of this pathway by α-Syn"}, {"measurement": "α-Syn-mediated increases in PI3K/AKT pathway activation (PIP3/PIP2 ratio, PSer473/total AKT)", "setting": "PI3K/AKT pathway [3]", "result": "inhibition of α-Syn-mediated increases in PI3K/AKT pathway activation"}]}, {"smiles": "COc1ncccc1-c1cnn2ccc(N3CCN(C(=O)OC(C)C)CC3)nc12", "note": "[LP-935509]", "values": [{"measurement": "colocalization of α-Syn and pAP2", "setting": "[4]", "result": "no obvious colocalization"}, {"measurement": "pAP2 signal", "setting": "[4]", "result": "dramatically reduced"}]}, {"smiles": "O=C(CN1CCN(C(=O)c2ccco2)CC1)Nc1cc(C(F)(F)F)ccc1Cl", "note": "[ML348]", "values": [{"measurement": "effects of α-Syn to enhance PIP3 levels (PIP3 to PIP2 ratio)", "setting": "[2]", "result": "interfere with the effects of α-Syn to enhance PIP3 levels"}]}, {"smiles": "CO[C@H]1C[C@@H]2CC[C@@H](C)[C@@](O)(O2)C(=O)C(=O)N2CCCC[C@H]2C(=O)O[C@H]([C@H](C)C[C@@H]2CC[C@@H](O)[C@H](OC)C2)CC(=O)[C@H](C)/C=C(\\C)[C@@H](O)[C@@H](OC)C(=O)[C@H](C)C[C@H](C)/C=C/C=C/C=C/1C", "note": "[rapamycin]", "values": [{"measurement": "PI4,5P2 levels", "setting": "HEK 293T cells [5]", "result": 26, "unit": "%"}, {"measurement": "α-Syn-induced CME (568-Tf internalization)", "setting": "HEK 293T cells [6]", "result": "no effect"}]}, {"smiles": "CC[C@@H]1C(=O)OC[C@@H]1Cc1cncn1C", "note": "[pilocarpine]", "values": [{"measurement": "PI4,5P2 signal following PLC activation", "setting": "muscarinic receptors", "result": "loss of PI4,5P2 signal"}]}]}
